Experimental data taken from patent US6410790B1, “3-amin3-arylpropan-1-ol compounds, their preparation and use” (priority 1999, dated 2002).

Key:
[1] = test system: benzothiazepine binding site of the L-type calcium channel; experiment: Diltiazem binding, L calcium channel; design: species or system rat; conditions: 10 μM, percentage inhibition, [3H]-cis-(+)-diltiazem 5 nM, rat cerebral cortex membranes
Summary of the method: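 Rat cerebral cortex membranes incubated with [^3H]-cis-(+)-diltiazem (5 nM) for 20 min at 25° C; nonspecific binding defined with (±)-diltiazem (10^−6 M). Bound ligand collected by GF/B filtration and counted; IC50 values converted to Ki by Cheng-Prusoff.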

[2] = test system: binding site 2 of the sodium channel; experiment: BTX binding, sodium channel; conditions: 10 μM, percentage inhibition, [3H]-batrachotoxin A20 α-benzoate 10 nM, rat cerebral cortex synaptosomes
Summary of the method: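 Rat cerebral cortex synaptosomes incubated with 10 nM [^3H]-batrachotoxin A20 α-benzoate at 37° C for 120 min; non-specific binding defined with 0.3 mM veratridine. IC50 values converted to Ki via Cheng-Prusoff; means±SEM of 3 independent series run in triplicate.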

[3] = test system: phenylquinone-induced writhing reaction; experiment: phenylquinone-induced writhing test in mice; type: in vivo; conditions: Mus musculus, iv, 10 min, male NMRI mice, 10 mg/kg intravenously, phenylquinone i.p. 10 minutes later
Summary of the method: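 Male NMRI mice (25–30 g, n=10/group) received test substance i.v. at 10 mg/kg, then 0.02% phenylquinone i.p. 10 min later. Writhing reactions were counted 5–20 min after phenylquinone; % inhibition is relative to saline-treated controls.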

NA transporter = molecular target: T1, NA transporter (Rattus norvegicus, UniProt Q63380); experiment: synaptosomal noradrenaline uptake inhibition (NA uptake inhibition); type: biochemical; conditions: read-out: NA Uptake Inhibition at 1 μM, 1 μM in the assay, synaptosomes from rat hypothalamus
T1 construct: synaptosomes are isolated fresh from rat brains; from tissue; host or cells: rat hypothalamus synaptosomes (P2 fraction)
T1 sequence (Q63380 1-617): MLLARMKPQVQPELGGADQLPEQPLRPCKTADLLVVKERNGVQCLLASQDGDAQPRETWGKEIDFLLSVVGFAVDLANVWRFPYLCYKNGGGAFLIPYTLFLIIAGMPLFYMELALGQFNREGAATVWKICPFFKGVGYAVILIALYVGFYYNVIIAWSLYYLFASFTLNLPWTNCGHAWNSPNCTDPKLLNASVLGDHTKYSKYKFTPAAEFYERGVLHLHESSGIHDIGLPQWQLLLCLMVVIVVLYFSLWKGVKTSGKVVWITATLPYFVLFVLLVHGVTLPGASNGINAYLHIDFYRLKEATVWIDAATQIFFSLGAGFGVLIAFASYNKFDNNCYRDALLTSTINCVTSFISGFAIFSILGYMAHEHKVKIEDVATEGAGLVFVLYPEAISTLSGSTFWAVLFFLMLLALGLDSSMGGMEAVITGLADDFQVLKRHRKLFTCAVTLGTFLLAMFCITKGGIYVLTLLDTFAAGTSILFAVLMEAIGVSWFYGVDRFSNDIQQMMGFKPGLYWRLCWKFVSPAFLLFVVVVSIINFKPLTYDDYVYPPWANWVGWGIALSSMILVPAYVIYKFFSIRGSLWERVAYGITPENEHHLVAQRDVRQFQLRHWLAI
Summary of the method: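 IC50 values converted to Ki via Cheng-Prusoff; Km by Lineweaver-Burk. N=4 independent series, each in triplicate, mean ± SEM.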

[4] = test system: phenylalkylamine binding site of the L-type calcium channel; experiment: Verapamil binding, L calcium channel; conditions: 10 μM, percentage inhibition, N-methyl-[3H]-verapamil 2 nM
Method: Binding Investigations in the L Calcium Channel
Phenylalkylamine Binding Site (Verapamil Binding)
The biological material (ion channel particles) was prepared on the basis of the publication of Reynolds, Gould and Snyder (I. J. Reynolds, R. J. Gould and S. H. Snyder (1983) […]. 95, 319-321).
N-methyl-[^3H]-verapamil (2 nM in the assay) was used as radioligand. The radioactivity that is measured in the presence of non-radioactive verapamil (10^−4 M in the assay) is defined as non-specific binding. The material was incubated at 25° C. for 45 minutes. The material was then filtered using a Whatman GF/B filter, followed by washing. The radioactivity remaining on the filter (ion channel binding) was measured using a β-counter.
For this purpose IC50 values are obtained, which can be converted to inhibitor constants (Ki) according to the “Cheng-Prusoff equation” (Y. C. Clieng and W. H. Prusoff (1973) Biochem. Pharmacol. 22, 3099-3108). The IC50 values were obtained by means of the computer program “Figure P” (version 6.0, Biosoft, Cambridge, England). Km values were calculated according to Lineweaver and Burk (H. Lineweaver and D. Burk (1934) J. Am. Chem. Soc. 56, 658-666). The “Ligand” computer program (version 4, Biosoft, England) was used to obtain Ken values.

Row | SMILES | Diltiazem Binding at 10 μM [1] [%] | BTX Binding at 10 μM [2] [%] | inhibition in vivo at 10 mg/kg [3] [%] | melting point [°C] | inhibition at 1 µM (NA transporter) [%] | Verapamil Binding at 10 μM [4] [%]
1 | CN(C)C(c1ccccc1)C1CCCCC1(O)Cc1cccc(F)c1.Cl (stereo not shown) [Example 29, 2-(dimethylaminophenylmethyl)-1-(3-fluorobenzyl)cyclohexanol, hydrochloride] | 72 | 88 | 96 | 146 to 147 | 96 | 
2 | Cc1ccc(C2(O)CCCCC2C(c2ccccc2)N(C)C)cc1.Cl (stereo not shown) [Example 8, 2-(dimethylaminophenylmethyl)-1-p-tolylcyclohexanol, hydrochloride] | 68 | 88 | 81 | 168 to 169 | 50 | 56
3 | CN(C)C(c1ccccc1)C1CCCCC1(O)c1ccc(F)c(C(F)(F)F)c1.Cl (stereo not shown) [Example 15, 2-(dimethylaminophenylmethyl)-1-(4-fluoro-3-trifluoromethylphenyl)cyclohexanol, hydrochloride] | 97 | 94 | 73 | 234 to 237 | 44 | 87
4 | CN(C)C(c1ccccc1)C1CCCCC1(O)Cc1ccc(C(C)(C)C)cc1.Cl (stereo not shown) [Example 28, 1-(4-tert.-butylbenzyl)-2-(dimethylaminophenylmethyl)cyclohexanol, hydrochloride] | 89 | 100 | 100 | 227 to 229 | 63 | 
